The source of these data is patent US7838562B2, “Methods of inhibiting vascular permeability and apoptosis” (University of Connecticut, priority 2004, dated 2010).

Molecules are shown by their SMILES. Like-named read-outs stand apart in the source and are kept apart here.

One assay relates to phospho-ERK-1/2. The assay can be described thus: Western blot of ERK-1/2 phosphorylation in HUVEC. Format: cell-based, human. Particulars: for increase in ERK-1/2 phosphorylation levels: 100 nM, after 5 minutes; for time of maximum ERK phosphorylation levels: data not shown; for ERK-1 and ERK-2 phosphorylation with Pertussis toxin: incubation with Pertussis toxin. The source says:
(§1) Endothelial cell morphogenesis, a phenomenon that requires endothelial cell migration, survival and adherens junction assembly, is mediated by the ligand-dependent activation of S1P1 and S1P3 receptors. […] The effects of FTY720-P and analogs on Akt and ERK phosphorylation in HUVEC were studied in a Western blot analysis. Confluent cultures of HUVEC cells were serum starved for two hours in 0.1% ffa-BSA M199 before treatments. Then, they were washed with ice-cold phosphate buffered saline (PBS) containing 1 mM sodium fluoride and 1 mM sodium orthovanadate and homogenized in radioimmunoprecipitation assay buffer (0.1% sodium dodecyl sulfate (SDS), 0.5% sodium deoxycholate, 1% NP-40, 1 mM sodium orthovanadate, 50 mM β-glycerophosphate and 1× protease inhibitor cocktail). Samples were centrifuged 10,000×g for 10 minutes, and protein concentrations of supernatants were determined by Bradford assay (BioRad Protein Dye Reagent). Equal amounts of protein were separated on a 10% polyacrylamide gel and blotted to a nitrocellulose membrane. Immunoblot analysis was performed using Phospho-Akt, Akt, phospho-ERK1/2 or ERK-1/2 antibodies.
(In general: In western blotting, separated proteins are transferred to a membrane and probed.)

In the next assay the test system is phospho-Akt. The assay is described as follows: Western blot of Akt phosphorylation in HUVEC. Format: cell-based, human. Particulars: for increase in Akt phosphorylation levels: 100 nM, after 5 minutes; for time of maximum Akt phosphorylation levels: data not shown; for Akt phosphorylation with Pertussis toxin: incubation with Pertussis toxin.
Excerpt: as §1

The test system of assay [1] is HUVEC. The assay is described as follows: apoptosis induced by serum deprivation in HUVEC (DNA fragmentation). Format: cell-based, human. Particulars: for Emax at 0.01 µM: Homo sapiens, HUVEC, 10 nM, 8 hours serum deprivation, read-out: inhibition of DNA fragmentation (maximum effect); for anti-apoptotic effect with Pertussis toxin: Pertussis toxin treatment. The protocol: Since ERK-1 and ERK-2 activation is necessary for the survival effect of S1P in endothelial cells, it was tested if FTY720-P and its analog (R)-AFD could prevent apoptosis induced by serum deprivation in HUVEC. In this test, HUVEC cells were labeled with {methyl-^3H}-thymidine (1 μCi/ml) for 16 hours. Then, they were washed and 0.1% ffa-BSA M199 containing the different treatments was added. After 8 hours, fragmented DNA was solubilized and quantified as described.

The test system of assay [2] is Mouse embryonic endothelial cells. The assay is described as follows: VEGF-induced paracellular permeability (Transwell, FITC-dextran). Format: cell-based. Particulars: 100 nM, 1 hr pretreatment, 45 minute time point, VEGF 50 ng/ml. The protocol:
Several studies have shown that VE-cadherin could be an important determinant of vascular permeability. […] A cellular system was used to assess the effects of S1P, FTY720-P and (R)-AFD on vascular permeability. Mouse embryonic endothelial cells (5×10^4) were cultured for 2 days in Transwell polycarbonate filters (6.5 mm diameter, 0.4 μm pores; Costar). Culture medium was replaced with serum/phenol red-free DMEM (HEPES buffer, L-glutamine, and pyridoxine hydrochloride) (0.1 mL upper chamber and 0.6 mL lower chamber). […] FITC-dextran (average MW=2,000 kDa), was added to the upper compartment either in the absence or presence of murine recombinant VEGF (50 ng/ml). Media from lower wells were taken after indicated time periods (5-45 minutes). Samples were placed in black solid bottom 96 well plates (Costar) and fluorescence intensities were measured using CytoFluor(R) fluorescence multi-well plate reader (Applied Biosystems) at 488 nm excitation. Data=mean±SE of duplicates. N=2. *p<0.01 VEGF vs. untreated. #p<0.01 treatments+VEGF vs. VEGF alone.

For assay [3], the system named is HUVEC. The assay can be described thus: HUVEC migration (96 well chemotaxis microchamber). Particulars: for fold induction at 0.01 µM: read-out: migration, fold induction at maximum effect; for induced migration in presence of Pertussis toxin: Pertussis toxin 200 ng/mL; for induction of endothelial cell migration: compound used directly as chemoattractant, 4 hours.
Method: Briefly, polycarbonate filters with a pore size of 8 micrometers (μm) were coated with 5 micrograms per milliliter (μg/ml) fibronectin. […] Approximately 5×10^4 cells suspended in M199 with 0.1% bovine serum albumin were placed in the upper compartment. The cells were allowed to migrate for 4 hours at 37° C. in a humidified chamber with 5% CO2. After the incubation period, the filter was removed, and cells were stained in 0.1% crystal violet and eluted with 10% acetic acid in 96-well plates.
After incubation, conditioned medium was removed, centrifuged at 1,000×g for 10 minutes, and used in the migration assay.

For another assay, the system named is VE-cadherin. The assay is described as follows: VE-cadherin localization by immunofluorescence in HUVEC. Format: cell-based, human. Particulars: 30 minutes; 10 nM (S1P 100 nM). The method, then:
The effects of FTY720-P and (R)-AFD on the localization of VE-cadherin were studied using immunofluorescence analysis. In this study, 2×10^5 cells were plated in 35 millimeter glass bottom petri dishes. Three days later, the cells were washed and serum starved for 3 hours before treatments. Then, the cells were washed with ice-cold PBS, fixed, and immunofluorescence analysis with VE-cadherin antibody was conducted (1 μg/ml Santa Cruz). The primary antibody staining was visualized with Rhodamine-conjugated goat anti-mouse (1:1000, Cappel) IgG. Confocal microscopy was conducted on a Zeiss LSM 510 laser-scanning confocal microscope. Rhodamine fluorescence was excited using a 543 nm Helium/Neon laser and emitted fluorescence was detected with a […] long-pass filter.

In another assay the target is T1, SK2 (Mus musculus, UniProt Q9JIA7).
T1 sequence (Q9JIA7 1-617): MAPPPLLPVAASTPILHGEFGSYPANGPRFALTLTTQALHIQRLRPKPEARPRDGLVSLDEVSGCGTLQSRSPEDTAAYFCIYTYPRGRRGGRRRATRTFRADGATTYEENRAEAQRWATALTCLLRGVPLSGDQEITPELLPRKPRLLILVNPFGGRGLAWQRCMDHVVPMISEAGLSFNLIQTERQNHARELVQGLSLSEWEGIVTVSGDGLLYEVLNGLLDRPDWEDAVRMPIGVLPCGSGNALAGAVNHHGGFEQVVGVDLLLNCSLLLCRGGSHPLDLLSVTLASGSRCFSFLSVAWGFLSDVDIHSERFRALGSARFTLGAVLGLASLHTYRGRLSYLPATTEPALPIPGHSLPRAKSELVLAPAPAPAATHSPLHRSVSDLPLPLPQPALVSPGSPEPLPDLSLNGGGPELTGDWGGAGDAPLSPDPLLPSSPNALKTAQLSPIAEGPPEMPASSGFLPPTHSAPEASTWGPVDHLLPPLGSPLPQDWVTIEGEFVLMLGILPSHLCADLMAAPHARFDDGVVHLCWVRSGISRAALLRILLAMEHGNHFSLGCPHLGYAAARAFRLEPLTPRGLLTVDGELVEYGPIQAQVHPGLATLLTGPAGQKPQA
Particulars: SK2-[…]T extract, 100 μM.

In assay [4] the test system is kinase activity present in HUVEC (sphingosine kinase). The assay can be described thus: in vitro kinase assay with total cell extract from HUVEC. In kind it is biochemical, human. Particulars: HUVEC kinase activity, 100 μM. The protocol:
To confirm that FTY720 and (R)-AAL are phosphorylated by endothelial cells, an in vitro kinase assay was performed with both total cell extract and conditioned medium from HUVEC. […] Cells were scraped at 4° C. with 400 μl of 25 mM HEPES pH 7.5, […], 1× protease inhibitor mixture, and disrupted by brief sonication. Cellular homogenates were centrifuged for 10 minutes, 4° C. at 20,000×g. In the kinase assay, 300 μl of conditioned medium (derived from 5×10^5 cells for 3 hours of incubation) or 10 μg of total cell extract from HUVEC were used as a source of kinase activity. […] Lipids were extracted and samples were resuspended in 50 μl of chloroform. Lipids were resolved by TLC on Silica Gel G60 using 1-butanol/acetic acid/water (60/20/20 volume/volume) buffer and quantified with a PhosphorImager (Molecular Dynamics).

Assay [5] relates to VEGF-induced vascular permeability. The assay can be described thus: mouse ear microvascular permeability assay (VEGF-induced). Format: in vivo, FVB/N mice. Particulars: mice, single oral administration (gavage, 50 μg) 5 hours prior. The method, then:
The role of plasma borne FTY720-P or (R)-AFD in the regulation of vascular permeability was tested in vivo. In order to test this possibility, an in vivo vascular permeability model was used in FTY720, (R)-AFD or (S)-AAL-pretreated mice. […] Five hours post-gavage, animals were anesthetized with 2% Avertin™ (0.5 cc/20 g) and infused through the tail vein with 100 μl FITC-dextran (5 mg/ml, 165 kDa). Animals were placed on a warming table under a fluorescent dissecting microscope (Zeiss STV11, Zeiss, Inc.) and the central vessels in the ear were imaged. Control saline or mouse vascular endothelial growth factor (mVEGF, 10 ng/ml) was injected subdermally into the middle ear using a 30 gauge needle (30 μl). Ear vasculature was then imaged with fixed exposure times in a stationary position from 5 minutes to 120 minutes post-injection. Fluorescence images were then quantified using pixel-based threshold in ImageProPlus (Media Cybernetics, Inc.) and quantified.

In the case of `CCCCCCCOc1ccc(CC[C@@](C)(N)CO)cc1` (stereo in doubt) [AAL, 2-amino-2-methyl-4-[4-heptoxy-phenyl]butane-1-ol], the “ERK-1/2 phosphorylation (in words)” value in the assay with phospho-ERK-1/2 was “did not induce phospho-Akt or phospho-ERK-1/2 levels”. The “Akt phosphorylation (in words)” value in the assay on phospho-Akt was “did not induce phospho-Akt or phospho-ERK-1/2 levels”.
`CCCCCCCCc1ccc(CCC(N)(CO)COP(=O)(O)O)cc1` (stereo not drawn) [FTY720-P]: in the assay with phospho-ERK-1/2, the “increase in ERK-1/2 phosphorylation levels” value amounted to 9.3 fold; the “time of maximum ERK phosphorylation levels” value turned out to be 5 min; the “ERK-1 and ERK-2 phosphorylation with Pertussis toxin” value (from here on “ERK-1 and ERK-2 phosphorylation”) is recorded as “blocked by incubation with Pertussis toxin”. The “ERK-1/2 phosphorylation (in words)” value in the assay on phospho-ERK-1/2 (5 minute stimulation) is “higher than the one induced by S1P”. Further, in the assay on phospho-Akt, the “increase in Akt phosphorylation levels” value came to 3.7 fold, the “time of maximum Akt phosphorylation levels” value came to 5 min and the “Akt phosphorylation with Pertussis toxin” value is recorded as “blocked by incubation with Pertussis toxin”. Also, the “Akt phosphorylation (in words)” value in the assay with phospho-Akt (5 minute stimulation) is “higher than the one induced by S1P”. Besides, in the assay with HUVEC [1], the “concentration of maximum anti-apoptotic effect” value was found to be 10 nM, the Emax at 0.01 µM was about 70% and the “anti-apoptotic effect with Pertussis toxin” value is recorded as “blocked by Pertussis toxin treatment”. For the same compound, in [2], the “inhibition of VEGF-induced paracellular permeability” value was “profoundly inhibited”. In the assay on HUVEC [3], the “concentration of maximum effect on migration” value came to 10 nM, the “induced migration in presence of Pertussis toxin” value is on record as “blocked by Pertussis toxin” and the “induction of endothelial cell migration” value is “potent chemoattractants for HUVEC”. For the same compound, the fold induction at 0.01 µM in the assay on HUVEC [3] (Homo sapiens, HUVEC) amounted to 13. The “VE-cadherin localization at cell-cell contact regions / translocation to adherens junctions” value in the assay with VE-cadherin is on record as “increase in VE-cadherin localization at the cell-cell contact regions”.
With `CCCCCCCOc1ccc(CC[C@](C)(N)CO)cc1` [(S)-AAL, 2-amino-2-methyl-4-[4-heptoxy-phenyl]butane-1-ol], the figures for the “phosphorylation of the substrate” value (on SK2; in [4]) were “barely detectable” and “undetectable”, respectively. Also, the “migration induced by conditioned medium” value in the assay on HUVEC [3] (compound incubated with HUVEC for 3 hours, conditioned medium used as chemoattractant) is “did not induce migration after incubation with endothelial cells”. Further, in assay [5], the “inhibition of vascular permeability induced by VEGF” value is on record as “but not (S)-AAL also potently inhibited vascular permeability in vivo”.
Regarding `CCCCCCCCCCCCC/C=C/[C@@H](O)[C@@H](N)COP(=O)(O)O` [S1P, Sphingosine-1-phosphate, reference compound], in the assay with phospho-ERK-1/2, the “time of maximum ERK phosphorylation levels” value is 5 min; the “ERK-1 and ERK-2 phosphorylation” value is “blocked by incubation with Pertussis toxin”. Besides, in the assay on phospho-Akt, the “time of maximum Akt phosphorylation levels” value was determined as 5 min and the “Akt phosphorylation with Pertussis toxin” value was “blocked by incubation with Pertussis toxin”. In addition, the “anti-apoptotic effect with Pertussis toxin” value in the assay with HUVEC [1] was “blocked by Pertussis toxin treatment”. Also, in assay [2], the “inhibition of VEGF-induced paracellular permeability” value was “profoundly inhibited”. For the same compound, the fold induction at 0.1 µM with HUVEC [3] (Homo sapiens, HUVEC, read-out: migration, fold induction) turned out to be 14. Moreover, in the assay with VE-cadherin, the “VE-cadherin localization at cell-cell contact regions / translocation to adherens junctions” value is on record as “comparable to that observed for S1P”.
Take `CCCCCCCOc1ccc(CC[C@@](C)(N)COP(=O)(O)O)cc1` [(R)-AFD]: in the assay with phospho-ERK-1/2, the “increase in ERK-1/2 phosphorylation levels” value was 8.2 fold; the “time of maximum ERK phosphorylation levels” value worked out at 5 min; the “ERK-1 and ERK-2 phosphorylation” value is reported as “blocked by incubation with Pertussis toxin”. Moreover, the “ERK-1/2 phosphorylation (in words)” value in the assay with phospho-ERK-1/2 (5 minute stimulation) is “higher than the one induced by S1P”. Further, in the assay with phospho-Akt, the “increase in Akt phosphorylation levels” value is 4.5 fold, the “time of maximum Akt phosphorylation levels” value amounted to 5 min and the “Akt phosphorylation with Pertussis toxin” value is listed as “blocked by incubation with Pertussis toxin”. For the same compound, the “Akt phosphorylation (in words)” value in the assay with phospho-Akt (5 minute stimulation) is reported as “higher than the one induced by S1P”. Besides, in the assay on HUVEC [1], the “concentration of maximum anti-apoptotic effect” value was determined as 10 nM, the Emax at 0.01 µM is about 70% and the “anti-apoptotic effect with Pertussis toxin” value is reported as “blocked by Pertussis toxin treatment”. Moreover, in assay [2], the “inhibition of VEGF-induced paracellular permeability” value is given as “profoundly inhibited”. In the assay on HUVEC [3], the “concentration of maximum effect on migration” value stood at 10 nM, the “induced migration in presence of Pertussis toxin” value is reported as “blocked by Pertussis toxin” and the “induction of endothelial cell migration” value is recorded as “potent chemoattractants for HUVEC”. Further, the fold induction at 0.01 µM with HUVEC [3] (Homo sapiens, HUVEC) was found to be 9. Also, the “VE-cadherin localization at cell-cell contact regions / translocation to adherens junctions” value with VE-cadherin is recorded as “increase in VE-cadherin localization at the cell-cell contact regions”.
